According to PubChem BioAssay AID732 (Emory University Molecular Libraries Screening Center, 2007):
Active and inactive are the calls of the source. The rule behind the calls is not given here.

The molecules below were run on in vivo angiogenesis, blood vessel count (assay: reduction of blood vessel formation in vivo – HTS, in vivo study (AID 732;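 note: zebrafish embryos dosed at one day post fertilization; 0% = reference inhibitor and 100% = plate mean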)). Conditions: active compounds read low;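 tested at 30 µM in the well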.
With `CCN(CC)CCNC(=O)c1ccc(N)cc1` the vessel count % control was 139% (inactive). `CC(C)NC(C)Cc1ccc(I)cc1` (stereo unspecified) was tested, and the vessel count % control was 109% (inactive). In the case of `NCCCCCC(=O)O`, the vessel count % control is reported as 116% (inactive). `C#CCN1C(C)=C(C(=O)OC)C(c2cccc([N+](=O)[O-])c2)C(C(=O)OCC)=C1C` (stereo unspecified) was tested, and the vessel count % control was 132% (inactive). For `N=C(N)c1ccc(OCCCCCOc2ccc(C(=N)N)cc2)cc1` (tested in a mixture with another compound), the vessel count % control was 99.1% (inactive). With `N#C/C(=C\c1c[nH]c2ccccc12)C(=O)c1ccc(O)c(O)c1` the vessel count % control was 102% (inactive). For `Oc1cc2c(cc1O)CN(C(=S)NCCc1ccc(Cl)cc1)CCC2`, the vessel count % control was 93.3% (inactive). For `CCCCOc1cc(CC2CNC(=O)N2)ccc1OC` (stereo unspecified), the vessel count % control was 106% (inactive). `COc1cc(=O)n(C)c2c(OCC(O)C(C)(C)O)cccc12` (stereo unspecified) was tested, and the vessel count % control was 75.4% (inactive). In the case of `C/C(=C\c1ccc(C(=O)O)cc1)c1ccc2c(c1)C(C)(C)CCC2(C)C`, the vessel count % control is reported as 70% (inactive). With `CN=C(NC#N)NCCSCc1nc[nH]c1C` the vessel count % control was 112% (inactive). In the case of `O=C1CCC(c2ccc(-n3ccnc3)cc2)=NN1`, the vessel count % control is reported as 86% (inactive). In the case of `Oc1cc2c(cc1O)C(c1ccccc1)CNCC2` (stereo unspecified), the vessel count % control is reported as 85.1% (inactive). `COc1cccc(-c2cc(=O)c3ccccc3o2)c1N` was tested, and the vessel count % control was 73.8% (inactive). With `CN1CCc2cc(O)c(O)cc2C(c2ccccc2)C1` (stereo unspecified) the vessel count % control was 107% (inactive). With `O=[N+]([O-])c1ccc(-c2nc(-c3ccc(F)cc3)c(-c3ccncc3)[nH]2)cc1` the vessel count % control was 124% (inactive). For `O=Nc1c(-c2c(O)[nH]c3ccc(S(=O)(=O)O)cc23)[nH]c2ccccc12`, the vessel count % control was 92.9% (inactive). With `Fc1ccc([C@@H]2CCNC[C@H]2COc2ccc3c(c2)OCO3)cc1` the vessel count % control was 138% (inactive). With `CC(C)NNC(=O)c1ccncc1` the vessel count % control was 118% (inactive). For `CCCn1cnc2c1c(=O)n(CCCCC(C)=O)c(=O)n2C`, the vessel count % control was 107% (inactive). `O=S(=O)(NCCNC/C=C/c1ccc(Br)cc1)c1cccc2cnccc12` was tested, and the vessel count % control was 90.3% (inactive). For `COC(=O)[C@H](NC(=O)c1cc(-c2ccccc2)nc2ccccc12)c1ccccc1`, the vessel count % control was 97.2% (inactive). With `CC(C)(O)[C@@H]1[C@H]2OC(=O)[C@@H]1[C@]1(O)C[C@H]3O[C@]34C(=O)O[C@H]2[C@]14C` (tested in a mixture with another compound) the vessel count % control was 116% (inactive). With `CCCCS(=N)(=O)CCC(N)C(=O)O` (stereo unspecified) the vessel count % control was 137% (inactive). With `Nc1ncnc2c1ncn2C1CCCC1` the vessel count % control was 81.5% (inactive). For `C(=C\c1ccccc1)/CN1CCN(C(c2ccccc2)c2ccccc2)CC1`, the vessel count % control was 88.9% (inactive). `CN(C)CC[C@@H](c1ccc(Cl)cc1)c1ccccn1` was tested, and the vessel count % control was 107% (inactive). With `C=C(C)[C@H]1CN[C@H](C(=O)O)[C@H]1CC(=O)O` the vessel count % control was 123% (inactive). With `CCN1CCC[C@H]1CNC(=O)c1c(O)c(Cl)cc(Cl)c1OC` the vessel count % control was 103% (inactive). With `NC(N)=NCCSSCCN=C(N)N` the vessel count % control was 93.7% (inactive). For `COC(=O)c1c(C)[nH]c(C)c1C(=O)c1ccccc1Cc1ccccc1`, the vessel count % control was 102% (inactive). With `CCCN(CCC)[C@@H]1CCc2cccc(O)c2C1` the vessel count % control was 94.1% (inactive). `Nc1c2c(nc3ccccc13)CCCC2` was tested, and the vessel count % control was 91.9% (inactive). `CCn1cc(C(=O)O)c(=O)c2ccc(C)nc21` was tested, and the vessel count % control was 135% (inactive). In the case of `N[C@@H](CCC(=O)N[C@H](CSN=O)C(=O)NCC(=O)O)C(=O)O`, the vessel count % control is reported as 97.4% (inactive). For `C[N+]1(CCCCC[N+]2(C)CCCC2)CCCC1`, the vessel count % control was 114% (inactive). For `Cc1ncc(CNC(=O)N(CCCl)N=O)c(N)n1`, the vessel count % control was 90.1% (inactive). With `O=Nc1ccc2oc(=O)ccc2c1` the vessel count % control was 95% (inactive). `CC(C)NP(=O)(NC(C)C)OP(=O)(NC(C)C)NC(C)C` was tested, and the vessel count % control was 117% (inactive). With `CP(=O)(O)C1=CCNCC1` the vessel count % control was 116% (inactive). For `NC(Cc1cc(O)c(O)cc1O)C(=O)O` (stereo unspecified), the vessel count % control was 88.2% (inactive). With `C[N+](C)(C)CCOC(=O)CCC(=O)OCC[N+](C)(C)C` the vessel count % control was 94.4% (inactive). With `OCc1ccc(-c2nn(Cc3ccccc3)c3ccccc23)o1` the vessel count % control was 78.2% (inactive). In the case of `NS(=O)(=O)c1cc2c(cc1Cl)NC=NS2(=O)=O`, the vessel count % control is reported as 135% (inactive). For `N#CC(=C(\N)Sc1ccccc1N)/C(C#N)=C(/N)Sc1ccccc1N`, the vessel count % control was 94.5% (inactive). `CCCN(CCC)C(=O)Cc1c(-c2ccc(Cl)cc2)nc2c(Cl)cc(Cl)cn12` was tested, and the vessel count % control was 89.9% (inactive). `S=C=Nc1cccc(C2(N3CCCCC3)CCCCC2)c1` was tested, and the vessel count % control was 91% (inactive). In the case of `CCN(CC)CCNC(=O)c1cc(S(C)(=O)=O)ccc1OC`, the vessel count % control is reported as 68.7% (inactive). `CN(C(=O)CCCOc1ccc2[nH]c(=O)ccc2c1)C1CCCCC1` was tested, and the vessel count % control was 94.5% (inactive). For `NC1CCN(O)C1=O` (stereo unspecified), the vessel count % control was 115% (inactive). `CC(C)NCC(O)c1ccc(O)c(O)c1` (stereo unspecified) was tested, and the vessel count % control was 97.1% (inactive). For `CN1CCC(=C2c3ccccc3CC(=O)c3sccc32)CC1`, the vessel count % control was 105% (inactive). For `O=Nc1c(-c2c(O)[nH]c3ccc(F)cc23)[nH]c2ccccc12`, the vessel count % control was 48.1% (inactive). With `C/C(O)=C(\C#N)C(=O)Nc1cc(Br)ccc1Br` the vessel count % control was 139% (inactive). In the case of `O=C(CCNNC(=O)c1ccncc1)NCc1ccccc1`, the vessel count % control is reported as 67.2% (inactive). `O=c1[nH]c(=O)n([C@H]2C[C@H](O)[C@@H](CO)O2)cc1/C=C/Br` was tested, and the vessel count % control was 93% (inactive). With `NCCSSCCN` the vessel count % control was 118% (inactive). With `CN(C)CCC=C1c2ccccc2CCc2ccccc21` the vessel count % control was 91.2% (inactive). For `NC(N)=[N+]1CCc2ccccc2C1`, the vessel count % control was 113% (inactive). `NC(CCP(=O)(O)O)C(=O)O` (stereo unspecified) was tested, and the vessel count % control was 88.9% (inactive). In the case of `CO[C@H]1CC=C2CCN3CCC4=C(CC(=O)OC4)[C@]23C1`, the vessel count % control is reported as 105% (inactive). `O=C(CCc1ccc(O)cc1)c1c(O)cc(O)cc1O` was tested, and the vessel count % control was 124% (inactive). `O=S1(=O)N(CCN2CC=C(c3c[nH]c4cc(F)ccc34)CC2)c2cccc3c2N1CCC3` was tested, and the vessel count % control was 148% (inactive). For `CCc1cccc2c3c([nH]c12)C(CC)(CC(=O)O)OCC3` (stereo unspecified), the vessel count % control was 83.6% (inactive). For `COc1ccc2c3c1O[C@H]1C(=O)CC[C@@]4(O)C(C2)N(CC2CC2)CCC314` (stereo partly specified), the vessel count % control was 124% (inactive). In the case of `CC(C)NCC(O)c1cc(O)cc(O)c1` (stereo unspecified), the vessel count % control is reported as 91.8% (inactive). In the case of `COc1cccc(C(=O)NCCN2CCN(c3ccc(Cl)cc3)CC2)c1`, the vessel count % control is reported as 66.6% (inactive). For `Nc1cc(Cl)c(NC2=NCCN2)c(Cl)c1`, the vessel count % control was 114% (inactive). In the case of `CCOC(=O)Nc1ccc(NCc2ccc(F)cc2)nc1N`, the vessel count % control is reported as 83.6% (inactive). With `C[C@]12CC[C@@H](O)CC1CC[C@@H]1[C@@H]2CC[C@]2(C)C(=O)CC[C@@H]12` (stereo partly specified) the vessel count % control was 104% (inactive). With `CCOC(=O)C12CC1/C(=N/O)c1ccccc1O2` (stereo unspecified) the vessel count % control was 104% (inactive). With `Cc1ccc2[nH]c(O)c(C3=Nc4ccc(Br)cc4C3=O)c2c1` the vessel count % control was 108% (inactive). In the case of `CC(CN(C)C)CN1c2ccccc2CCc2ccccc21` (stereo unspecified), the vessel count % control is reported as 97.1% (inactive). For `C#CCN(C)CCCOc1ccc(Cl)cc1Cl`, the vessel count % control was 100% (inactive). In the case of `NC(CCCCCP(=O)(O)O)C(=O)O` (stereo unspecified), the vessel count % control is reported as 113% (inactive). For `O=[N+]([O-])c1ccc(O[C@@H]2O[C@H](CO)[C@@H](O)[C@H](O)[C@H]2F)c([N+](=O)[O-])c1`, the vessel count % control was 99.2% (inactive). For `OCc1cc(C(O)CNCCCCCCOCCCCc2ccccc2)ccc1O` (stereo unspecified), the vessel count % control was 126% (inactive). In the case of `CCN(CCCl)Cc1ccccc1Br`, the vessel count % control is reported as 99.8% (inactive). With `O=c1ccc2c(OCCCCc3ccccc3)c3ccoc3cc2o1` the vessel count % control was 76.3% (inactive). With `NC/C=C\C(=O)O` the vessel count % control was 111% (inactive). For `CN(C)CCCC1(c2ccc(F)cc2)OCc2cc(C#N)ccc21` (stereo unspecified), the vessel count % control was 99.8% (inactive). `CCn1c(=O)[nH]c2cc(Cl)c(Cl)cc21` was tested, and the vessel count % control was 87.7% (inactive). `c1cc(CN2CCCCC2)cc(OCCCNc2nc3ccccc3s2)c1` was tested, and the vessel count % control was 112% (inactive). In the case of `CC(N)(C(=O)O)c1ccc(C(=O)O)cc1` (stereo unspecified), the vessel count % control is reported as 93.5% (inactive). In the case of `C=CCN1CCC23c4c5ccc(O)c4O[C@H]2C(=O)CC[C@@]3(O)C1C5` (stereo partly specified), the vessel count % control is reported as 88.4% (inactive). With `OCCN1CCN(CC/C=C2/c3ccccc3Sc3ccc(C(F)(F)F)cc32)CC1` the vessel count % control was 110% (inactive). With `NC(=NCc1ccc(Cl)c(Cl)c1)NC(=O)c1nc(Cl)c(N)nc1N` the vessel count % control was 108% (inactive). With `COc1cc2nc(N3CCN(C(=O)C4CCCO4)CC3)nc(N)c2cc1OC` (stereo unspecified) the vessel count % control was 83.3% (inactive). With `Cn1ccc2cc3c(cc21)CCN3C(=O)Nc1cccnc1` the vessel count % control was 88% (inactive). In the case of `CN(N=O)c1ccc(O)c(O)c1`, the vessel count % control is reported as 96.8% (inactive). For `O=[N+]([O-])c1cc(O)c(O)c([N+](=O)[O-])c1`, the vessel count % control was 89.3% (inactive). In the case of `OCc1cnc[nH]1`, the vessel count % control is reported as 106% (inactive). With `CC1=C(C)C(=O)C(CCCCC#CCCCC#CCO)=C(C)C1=O` the vessel count % control was 88.8% (inactive). `N[C@H](CO)C(=O)O` was tested, and the vessel count % control was 105% (inactive). For `CC(CCc1ccccc1)NCC(O)c1ccc(O)c(C(N)=O)c1` (stereo unspecified), the vessel count % control was 89.9% (inactive). In the case of `CCN(Cc1ccncc1)C(=O)C(CO)c1ccccc1` (stereo unspecified), the vessel count % control is reported as 114% (inactive). With `COc1ccc2c(c1)[C@@]13CCCC[C@H]1[C@@H](C2)NCC3` the vessel count % control was 78.3% (inactive). With `CCN(CC)CCNC(=O)c1ccc(NC(C)=O)cc1` the vessel count % control was 117% (inactive). `Cc1ccc(C(=O)O[C@H](C(=O)O)[C@H](OC(=O)c2ccc(C)cc2)C(=O)O)cc1` (tested in a mixture with another compound) was tested, and the vessel count % control was 109% (inactive). In the case of `CCN1C[C@]2(C)CC[C@H](O)[C@@]34C5C[C@@H]6[C@@H](OC)C[C@@](O)(C5[C@H]6O)[C@@H](CC23)C14` (stereo partly specified), the vessel count % control is reported as 76.7% (inactive). For `COc1cc2c(c(OC)c1OC)-c1ccc(OC)c(=O)cc1[C@@H](NC(C)=O)CC2`, the vessel count % control was 116% (inactive).
